Source: ChEMBL document CHEMBL1201862, “PubChem BioAssay data set” (2004)
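Step 1: Grow cells in 96-well plates. Step 2: Expose to compound for 48 hours at 5 concentrations. Step 3: Interpolate endpoints linearly; if unreached, use highest concentration. GI50: concentration for 50% inhibition of growth.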 Calls of active or inactive are those of the source. Rule as the data show it: active = GI50 up to about 1.1 µM and inactive = higher.

Tests used:
Test in all cases: NCI tumour cell line growth inhibition, 48 h
LXFL 529 = test system: LXFL 529
K562 = test system: K562
NCI-H23 = test system: NCI-H23
SW-620 = test system: SW-620
OVCAR-3 = test system: OVCAR-3
DLD-1 = test system: DLD-1
CAKI-1 = test system: CAKI-1
UACC-62 = test system: UACC-62
HCT-116 = test system: HCT-116
RXF 393 = test system: RXF 393
SNB-75 = test system: SNB-75
SF-295 = test system: SF-295
UACC-257 = test system: UACC-257
HOP-18 = test system: HOP-18
KM-20L2 = test system: KM-20L2
SNB-78 = test system: SNB-78
SF-268 = test system: SF-268
RPMI-8226 = test system: RPMI-8226
HCT-15 = test system: HCT-15
HOP-62 = test system: HOP-62
SK-MEL-5 = test system: SK-MEL-5
IGROV-1 = test system: IGROV-1
RXF 631 = test system: RXF 631
TK-10 = test system: TK-10
NCI-H522 = test system: NCI-H522
UO-31 = test system: UO-31
M19-MEL = test system: M19-MEL
LOX IMVI = test system: LOX IMVI
SF-539 = test system: SF-539
HOP-92 = test system: HOP-92
Malme-3M = test system: Malme-3M
OVCAR-4 = test system: OVCAR-4
ACHN = test system: ACHN
OVCAR-5 = test system: OVCAR-5
SNB-19 = test system: SNB-19
KM12 = test system: KM12
SK-MEL-2 = test system: SK-MEL-2
SK-OV-3 = test system: SK-OV-3
786-0 = test system: 786-0
A498 = test system: A498
NCI-H226 = test system: NCI-H226
HL-60 = test system: HL-60
NCI-H460 = test system: NCI-H460
OVCAR-8 = test system: OVCAR-8
HT-29 = test system: HT-29
M14 = test system: M14
U-251 = test system: U-251
SR = test system: SR
A549 = test system: A549
SN12C = test system: SN12C
EKVX = test system: EKVX
CCRF-CEM = test system: CCRF-CEM
XF498 = test system: XF498
MOLT-4 = test system: MOLT-4
COLO 205 = test system: COLO 205
DMS-273 = test system: DMS-273
DMS-114 = test system: DMS-114
SK-MEL-28 = test system: SK-MEL-28
HCC 2998 = test system: HCC 2998

Measured: GI50

Cc1ccc(S(=O)(=O)N/N=C(\CCN2CCCC2)CC(c2ccccc2)c2c(O)c3ccccc3oc2=O)cc1 (configuration not stated)
inactive: LXFL 529 > 100 µM | K562 88.9 µM | NCI-H23 > 100 µM | SW-620 49.5 µM | OVCAR-3 > 100 µM | DLD-1 > 100 µM | CAKI-1 > 100 µM | UACC-62 > 100 µM | HCT-116 > 100 µM | RXF 393 > 100 µM | SNB-75 > 100 µM | SF-295 > 100 µM | UACC-257 > 100 µM | HOP-18 > 100 µM | KM-20L2 > 100 µM | SNB-78 > 100 µM | SF-268 > 100 µM | RPMI-8226 > 100 µM | HOP-62 > 100 µM | SK-MEL-5 > 100 µM | IGROV-1 > 100 µM | RXF 631 > 100 µM | TK-10 > 100 µM | NCI-H522 99.5 µM | UO-31 > 100 µM | M19-MEL > 100 µM | LOX IMVI > 100 µM | SF-539 > 100 µM | HOP-92 72.3 µM | Malme-3M > 100 µM | OVCAR-4 > 100 µM | ACHN > 100 µM | OVCAR-5 > 100 µM | SNB-19 > 100 µM | KM12 > 100 µM | SK-MEL-2 > 100 µM | SK-OV-3 > 100 µM | 786-0 > 100 µM | A498 > 100 µM | NCI-H226 > 100 µM | HL-60 > 100 µM | NCI-H460 > 100 µM | OVCAR-8 > 100 µM | HT-29 > 100 µM | M14 > 100 µM | U-251 > 100 µM | SR > 100 µM | A549 > 100 µM | SN12C > 100 µM | EKVX > 100 µM | CCRF-CEM 95.5 µM | XF498 > 100 µM
> 100 µM: HCT-15

O=C(N/N=C/c1cc(Br)ccc1O)N/N=C/c1cc(Br)ccc1O
inactive: MOLT-4 1.97 µM | NCI-H23 2.31 µM | SW-620 1.73 µM | DLD-1 2.9 µM | CAKI-1 2.79 µM | UACC-62 2.24 µM | RXF 393 > 100 µM | SF-295 3.84 µM | UACC-257 4.3 µM | KM-20L2 4.85 µM | COLO 205 4.45 µM | SF-268 5.75 µM | HOP-62 4.46 µM | SK-MEL-5 2.49 µM | IGROV-1 2.14 µM | RXF 631 14.2 µM | TK-10 54.6 µM | NCI-H522 1.99 µM | M19-MEL > 100 µM | LOX IMVI 5.85 µM | Malme-3M 3.64 µM | OVCAR-4 3.72 µM | ACHN 4.6 µM | OVCAR-5 2.84 µM | SNB-19 5.31 µM | DMS-114 1.18 µM | KM12 5.35 µM | SK-OV-3 69 µM | 786-0 4.93 µM | A498 > 100 µM | NCI-H226 2.02 µM | HL-60 1.25 µM | SK-MEL-28 > 100 µM | NCI-H460 3.1 µM | OVCAR-8 2.54 µM | HT-29 5.97 µM | U-251 3.55 µM | SR 3.5 µM | A549 1.56 µM | SN12C 5.35 µM | EKVX 4.93 µM | CCRF-CEM 1.4 µM | XF498 2.19 µM
active: K562 0.377 µM | DMS-273 0.791 µM | UO-31 0.64 µM | SF-539 0.877 µM | HOP-92 0.661 µM

CNS(=O)(=O)NNS(=O)(=O)c1ccc(OC)cc1
> 100 µM: HCT-15
inactive: LXFL 529 > 100 µM | K562 > 100 µM | MOLT-4 > 100 µM | NCI-H23 > 100 µM | SW-620 > 100 µM | HCC 2998 > 100 µM | OVCAR-3 > 100 µM | DLD-1 > 100 µM | CAKI-1 > 100 µM | UACC-62 > 100 µM | HCT-116 > 100 µM | RXF 393 > 100 µM | SNB-75 > 100 µM | SF-295 > 100 µM | UACC-257 > 100 µM | KM-20L2 > 100 µM | COLO 205 > 100 µM | SF-268 > 100 µM | RPMI-8226 > 100 µM | HOP-62 > 100 µM | SK-MEL-5 > 100 µM | IGROV-1 > 100 µM | RXF 631 > 100 µM | DMS-273 > 100 µM | NCI-H522 > 100 µM | UO-31 > 100 µM | M19-MEL > 100 µM | LOX IMVI > 100 µM | SF-539 > 100 µM | Malme-3M > 100 µM | OVCAR-4 > 100 µM | ACHN > 100 µM | SNB-19 > 100 µM | DMS-114 > 100 µM | KM12 > 100 µM | SK-MEL-2 > 100 µM | SK-OV-3 > 100 µM | 786-0 > 100 µM | A498 > 100 µM | HL-60 > 100 µM | NCI-H460 > 100 µM | OVCAR-8 > 100 µM | HT-29 > 100 µM | M14 > 100 µM | U-251 > 100 µM | SR > 100 µM | A549 > 100 µM | EKVX > 100 µM | CCRF-CEM > 100 µM | XF498 > 100 µM
